From ChEMBL document CHEMBL1136241 (Bioorg Med Chem Lett, 2003)

Assays:
D(1A) dopamine receptor = D(1A) dopamine receptor (Bos taurus, UniProt Q95136)
D(4) dopamine receptor = molecular target: T1, D(4) dopamine receptor (Homo sapiens, UniProt P21917)
T1 sequence (P21917 whole entry): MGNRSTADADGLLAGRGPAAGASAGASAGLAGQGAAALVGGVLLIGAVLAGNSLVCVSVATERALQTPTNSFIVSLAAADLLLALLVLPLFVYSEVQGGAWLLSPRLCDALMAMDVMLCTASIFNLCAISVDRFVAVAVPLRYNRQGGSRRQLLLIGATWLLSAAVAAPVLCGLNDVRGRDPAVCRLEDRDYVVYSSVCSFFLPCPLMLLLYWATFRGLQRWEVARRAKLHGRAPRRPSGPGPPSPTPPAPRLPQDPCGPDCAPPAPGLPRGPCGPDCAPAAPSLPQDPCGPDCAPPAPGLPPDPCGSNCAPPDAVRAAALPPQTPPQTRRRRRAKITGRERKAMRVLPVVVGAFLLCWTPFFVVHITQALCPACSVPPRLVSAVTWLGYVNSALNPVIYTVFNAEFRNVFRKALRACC

D(2) dopamine receptor [1] = molecular target: T2, D(2) dopamine receptor (Homo sapiens, UniProt P14416); test: biochemical
T2 sequence (P14416 whole entry): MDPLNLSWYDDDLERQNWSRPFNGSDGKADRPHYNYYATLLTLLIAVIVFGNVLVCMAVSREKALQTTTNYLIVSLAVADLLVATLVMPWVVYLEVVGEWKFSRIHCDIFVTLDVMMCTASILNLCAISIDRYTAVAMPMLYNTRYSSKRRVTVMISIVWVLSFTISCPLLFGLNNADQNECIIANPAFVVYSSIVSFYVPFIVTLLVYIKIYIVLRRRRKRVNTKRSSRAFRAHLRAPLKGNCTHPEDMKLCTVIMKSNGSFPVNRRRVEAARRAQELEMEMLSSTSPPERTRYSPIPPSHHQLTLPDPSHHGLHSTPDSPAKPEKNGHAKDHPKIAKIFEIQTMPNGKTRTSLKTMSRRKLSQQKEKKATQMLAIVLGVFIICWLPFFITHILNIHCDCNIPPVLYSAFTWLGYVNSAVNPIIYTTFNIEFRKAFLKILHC

D(2) dopamine receptor [2] = molecular target: T2, D(2) dopamine receptor; test: biochemical; remark: listed apart in the source
D(3) dopamine receptor [3] = molecular target: T3, D(3) dopamine receptor (Homo sapiens, UniProt P35462); test: biochemical
T3 sequence (P35462 whole entry): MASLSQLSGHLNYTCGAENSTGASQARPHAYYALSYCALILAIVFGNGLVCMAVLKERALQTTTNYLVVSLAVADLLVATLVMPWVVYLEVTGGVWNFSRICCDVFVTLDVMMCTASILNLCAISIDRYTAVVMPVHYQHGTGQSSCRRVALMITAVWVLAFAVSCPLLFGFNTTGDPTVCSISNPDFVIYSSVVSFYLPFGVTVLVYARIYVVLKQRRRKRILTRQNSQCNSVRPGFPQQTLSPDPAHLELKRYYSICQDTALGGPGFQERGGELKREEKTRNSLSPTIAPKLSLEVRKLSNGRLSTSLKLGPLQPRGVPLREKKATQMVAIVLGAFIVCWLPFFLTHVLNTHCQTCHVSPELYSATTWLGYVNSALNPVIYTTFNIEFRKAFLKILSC

D(2) dopamine receptor [4] = molecular target: T2, D(2) dopamine receptor; test: Ability to displace [3H]spiperone [0.5 nM (Kd=0.2-0.45 nM)] from human cloned dopamine receptor D2S expressed in CHO cells at 0.5 nM concentration; assay type: cell-based
D(3) dopamine receptor [5] = molecular target: T3, D(3) dopamine receptor; settings: cho

Sequence of D(1A) dopamine receptor (Q95136 whole entry): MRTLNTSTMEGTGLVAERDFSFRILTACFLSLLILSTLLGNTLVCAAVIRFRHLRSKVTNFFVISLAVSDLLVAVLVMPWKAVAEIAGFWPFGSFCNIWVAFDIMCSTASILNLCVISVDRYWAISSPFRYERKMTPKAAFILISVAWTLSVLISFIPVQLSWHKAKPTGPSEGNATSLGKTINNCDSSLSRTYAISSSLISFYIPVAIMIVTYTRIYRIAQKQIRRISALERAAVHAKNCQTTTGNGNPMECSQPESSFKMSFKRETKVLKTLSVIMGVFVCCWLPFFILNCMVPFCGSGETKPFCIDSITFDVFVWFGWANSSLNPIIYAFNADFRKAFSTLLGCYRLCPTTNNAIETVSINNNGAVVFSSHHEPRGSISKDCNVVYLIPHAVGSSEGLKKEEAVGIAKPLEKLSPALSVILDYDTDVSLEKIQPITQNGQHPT

With CNc1cc(OC)c(C(=O)N[C@H]2CCN(Cc3ccccc3)C[C@@H]2C)cc1Cl (stereo in doubt; 3b) the Ki (D(1A) dopamine receptor) was 8200 nM, the Ki (D(4) dopamine receptor) was 4.7 nM and the Ki (D(2) dopamine receptor [1]) was 54 nM. It also gave a Ki (D(2) dopamine receptor [2]) of 39 nM and a Ki (D(3) dopamine receptor [3]) of 510 nM.

COc1c(C(=O)NCC[C@@H]2CCN(Cc3ccccc3)C2)cc(Br)c2ccccc12 (stereo in doubt; 3l) was tested, and the Ki (D(1A) dopamine receptor) was 1700 nM, the Ki (D(4) dopamine receptor) was 500 nM and the Ki (D(2) dopamine receptor [1]) was 2000 nM. For the same compound, the Ki (D(2) dopamine receptor [2]) was 1900 nM and the Ki (D(3) dopamine receptor [3]) was 580 nM.

CNc1cc(OC)c(C(=O)N[C@H]2CN(Cc3ccccc3)C[C@H]2C)cc1Cl (stereo in doubt; 3e) gave a Ki (D(1A) dopamine receptor) of 4100 nM, a Ki (D(4) dopamine receptor) of 0.23 nM and a Ki (D(2) dopamine receptor [1]) of 3.7 nM. It also gave a Ki (D(2) dopamine receptor [2]) of 3 nM and a Ki (D(3) dopamine receptor [3]) of 100 nM.

CNc1cc(OC)c(C(=O)N[C@H]2CCCN(Cc3ccccc3)C2)cc1Cl (stereo in doubt; 5b) gave a Ki (D(1A) dopamine receptor) of 10000 nM, a Ki (D(4) dopamine receptor) of 25 nM and a Ki (D(2) dopamine receptor [1]) of 170 nM. For the same compound, the Ki (D(2) dopamine receptor [2]) was 130 nM and the Ki (D(3) dopamine receptor [3]) was 560 nM.

With COc1cc(N)c(Cl)cc1C(=O)N[C@H]1CCCN(Cc2ccccc2)C1 (stereo in doubt) the Ki (D(1A) dopamine receptor) was 13000 nM, the Ki (D(4) dopamine receptor) was 530 nM and the Ki (D(2) dopamine receptor [1]) was 7900 nM. For the same compound, the Ki (D(2) dopamine receptor [2]) was 4200 nM and the Ki (D(3) dopamine receptor [3]) was 8700 nM.

Work on COc1cc(N)c(Cl)cc1C(=O)N[C@H]1CCCN(Cc2ccccc2)C1 (stereo in doubt; 5a) yielded a Ki (D(1A) dopamine receptor) of 17000 nM, a Ki (D(4) dopamine receptor) of 200 nM and a Ki (D(2) dopamine receptor [1]) of 1600 nM. It also gave a Ki (D(2) dopamine receptor [2]) of 1100 nM and a Ki (D(3) dopamine receptor [3]) of 2900 nM.

C#Cc1cc(C(=O)N[C@@H]2CCN(Cc3ccccc3)C2)c(OC)c2ccccc12 (stereo in doubt; 3i) showed a Ki (D(1A) dopamine receptor) of 3300 nM, a Ki (D(4) dopamine receptor) of 2.5 nM and a Ki (D(2) dopamine receptor [1]) of 190 nM. The Ki (D(2) dopamine receptor [2]) was 82 nM and the Ki (D(3) dopamine receptor [3]) was 86 nM.

Compound CNc1cc(OC)c(C(=O)N[C@H]2CN(Cc3ccccc3)C[C@@H]2C)cc1Cl (stereo in doubt) has a Ki (D(1A) dopamine receptor) of 5300 nM, a Ki (D(4) dopamine receptor) of 4.3 nM and a Ki (D(2) dopamine receptor [1]) of 15 nM. The Ki (D(2) dopamine receptor [2]) was 11 nM and the Ki (D(3) dopamine receptor [3]) was 27 nM.

Compound COc1c(C(=O)N[C@H]2CN(Cc3ccccc3)C[C@H]2C)cc(Br)c2ccccc12 (stereo in doubt; 3f) has a Ki (D(1A) dopamine receptor) of 4700 nM, a Ki (D(4) dopamine receptor) of 2.7 nM and a Ki (D(2) dopamine receptor [1]) of 200 nM. The Ki (D(2) dopamine receptor [2]) was 135 nM and the Ki (D(3) dopamine receptor [3]) was 390 nM.

For COc1c(C(=O)N[C@H]2CN(Cc3ccccc3)C[C@@H]2C)cc(Br)c2ccccc12 (stereo in doubt; 3d), the Ki (D(1A) dopamine receptor) was 8400 nM, the Ki (D(4) dopamine receptor) was 17 nM and the Ki (D(2) dopamine receptor [1]) was 1000 nM. It also gave a Ki (D(2) dopamine receptor [2]) of 700 nM and a Ki (D(3) dopamine receptor [3]) of 740 nM.

In the case of COc1c(C(=O)NCC[C@@H]2CCN(Cc3ccccc3)C2)cc(Br)c2ccccc12 (stereo in doubt), the Ki (D(1A) dopamine receptor) is reported as 2100 nM, the Ki (D(4) dopamine receptor) is reported as 610 nM and the Ki (D(2) dopamine receptor [1]) is reported as 2500 nM. It also gave a Ki (D(2) dopamine receptor [2]) of 2800 nM and a Ki (D(3) dopamine receptor [3]) of 1000 nM.

In the case of COc1c(C(=O)N[C@H]2CN(Cc3ccccc3)C[C@H]2C)cc(Br)c2ccccc12 (stereo in doubt), the Ki (D(1A) dopamine receptor) is reported as 4000 nM, the Ki (D(4) dopamine receptor) is reported as 27 nM and the Ki (D(2) dopamine receptor [1]) is reported as 290 nM. It also gave a Ki (D(2) dopamine receptor [4]) of 170 nM and a Ki (D(3) dopamine receptor [3]) of 130 nM.

In the case of COc1c(C(=O)N[C@@H]2CCN(Cc3ccccc3)C2)cc(Br)c2ccccc12 (stereo in doubt; 3g), the Ki (D(1A) dopamine receptor) is reported as 7200 nM, the Ki (D(4) dopamine receptor) is reported as 5 nM and the Ki (D(2) dopamine receptor [1]) is reported as 180 nM. It also gave a Ki (D(2) dopamine receptor [4]) of 130 nM and a Ki (D(3) dopamine receptor [3]) of 250 nM.

CNc1cc(OC)c(C(=O)N[C@H]2CN(Cc3ccccc3)C[C@@H]2C)cc1Cl (stereo in doubt; 3c) gave a Ki (D(1A) dopamine receptor) of 12000 nM, a Ki (D(4) dopamine receptor) of 0.77 nM and a Ki (D(2) dopamine receptor [1]) of 21 nM. For the same compound, the Ki (D(2) dopamine receptor [2]) was 19 nM and the Ki (D(3) dopamine receptor [3]) was 220 nM.

Work on COc1c(C(=O)N[C@H]2CN(Cc3ccccc3)C[C@@H]2C)cc(Br)c2ccccc12 (stereo in doubt) yielded a Ki (D(1A) dopamine receptor) of 4200 nM, a Ki (D(4) dopamine receptor) of 59 nM and a Ki (D(2) dopamine receptor [1]) of 490 nM. For the same compound, the Ki (D(2) dopamine receptor [2]) was 260 nM and the Ki (D(3) dopamine receptor [3]) was 140 nM.

COc1c(C(=O)N[C@@H]2CCN(Cc3ccccc3)C2)cc(C#Cc2ccccc2)c2ccccc12 (stereo in doubt) gave a Ki (D(1A) dopamine receptor) of 3300 nM, a Ki (D(4) dopamine receptor) of 1500 nM and a Ki (D(3) dopamine receptor [5]) of 1000 nM. For the same compound, the Ki (D(2) dopamine receptor [1]) was 7700 nM and the Ki (D(2) dopamine receptor [2]) was 5500 nM.

In the case of CNc1cc(OC)c(C(=O)N[C@H]2CN(Cc3ccccc3)C[C@H]2C)cc1Cl (stereo in doubt), the Ki (D(1A) dopamine receptor) is reported as 4700 nM, the Ki (D(4) dopamine receptor) is reported as 0.84 nM and the Ki (D(2) dopamine receptor [1]) is reported as 2.3 nM. For the same compound, the Ki (D(2) dopamine receptor [2]) was 2 nM and the Ki (D(3) dopamine receptor [3]) was 1.8 nM.

With CNc1cc(OC)c(C(=O)N[C@H]2CCN(Cc3ccccc3)C[C@@H]2C)cc1Cl (stereo in doubt) the Ki (D(1A) dopamine receptor) was 4400 nM, the Ki (D(4) dopamine receptor) was 1.6 nM and the Ki (D(2) dopamine receptor [1]) was 8 nM. The Ki (D(2) dopamine receptor [2]) was 6.4 nM and the Ki (D(3) dopamine receptor [3]) was 13 nM.

For CNc1cc(OC)c(C(=O)NC2CCN(Cc3ccccc3)CC2)cc1Cl, the Ki (D(1A) dopamine receptor) was 6800 nM, the Ki (D(4) dopamine receptor) was 8.3 nM and the Ki (D(2) dopamine receptor [1]) was 24 nM. It also gave a Ki (D(2) dopamine receptor [2]) of 15 nM and a Ki (D(3) dopamine receptor [3]) of 160 nM.

With COc1c(C(=O)N[C@@H]2CCN(Cc3ccccc3)C2)cc(Br)c2ccccc12 (stereo in doubt) the Ki (D(1A) dopamine receptor) was 7400 nM, the Ki (D(4) dopamine receptor) was 21 nM and the Ki (D(2) dopamine receptor [1]) was 150 nM. The Ki (D(2) dopamine receptor [2]) was 150 nM and the Ki (D(3) dopamine receptor [3]) was 84 nM.

Work on COc1c(C(=O)N[C@@H]2CCN(Cc3ccccc3)C2)cc(C#Cc2ccccc2)c2ccccc12 (stereo in doubt; 3j) yielded a Ki (D(1A) dopamine receptor) of 2800 nM, a Ki (D(4) dopamine receptor) of 500 nM and a Ki (D(2) dopamine receptor [1]) of 6400 nM. The Ki (D(2) dopamine receptor [2]) was 4000 nM and the Ki (D(3) dopamine receptor [3]) was 1000 nM.

With COc1c(C(=O)N[C@@H]2CCN(Cc3ccccc3)C2)cc(I)c2ccccc12 (stereo in doubt) the Ki (D(1A) dopamine receptor) was 6100 nM, the Ki (D(4) dopamine receptor) was 3.3 nM and the Ki (D(2) dopamine receptor [1]) was 190 nM. It also gave a Ki (D(2) dopamine receptor [2]) of 70 nM and a Ki (D(3) dopamine receptor [3]) of 33 nM.

For C#Cc1cc(C(=O)N[C@@H]2CCN(Cc3ccccc3)C2)c(OC)c2ccccc12 (stereo in doubt), the Ki (D(1A) dopamine receptor) was 6100 nM, the Ki (D(4) dopamine receptor) was 7 nM and the Ki (D(2) dopamine receptor [1]) was 500 nM. For the same compound, the Ki (D(2) dopamine receptor [2]) was 250 nM and the Ki (D(3) dopamine receptor [3]) was 79 nM.

COc1c(C(=O)N[C@@H]2CCN(Cc3ccccc3)C2)cc(I)c2ccccc12 (stereo in doubt; 3h) gave a Ki (D(1A) dopamine receptor) of 3000 nM, a Ki (D(4) dopamine receptor) of 1.2 nM and a Ki (D(2) dopamine receptor [1]) of 60 nM. It also gave a Ki (D(2) dopamine receptor [2]) of 23 nM and a Ki (D(3) dopamine receptor [3]) of 34 nM.

In the case of COc1c(C(=O)NC[C@@H]2CCN(Cc3ccccc3)C2)cc(Br)c2ccccc12 (stereo in doubt; 3k), the Ki (D(1A) dopamine receptor) is reported as 2100 nM, the Ki (D(4) dopamine receptor) is reported as 130 nM and the Ki (D(2) dopamine receptor [1]) is reported as 640 nM. The Ki (D(2) dopamine receptor [2]) was 420 nM and the Ki (D(3) dopamine receptor [3]) was 410 nM.

For COc1cc(N)c(Cl)cc1C(=O)N[C@H]1CCN(Cc2ccccc2)C[C@@H]1C (stereo in doubt), the Ki (D(1A) dopamine receptor) was 7100 nM, the Ki (D(4) dopamine receptor) was 7.4 nM and the Ki (D(2) dopamine receptor [1]) was 8.6 nM. The Ki (D(2) dopamine receptor [2]) was 7.4 nM and the Ki (D(3) dopamine receptor [3]) was 20 nM.

With CNc1cc(OC)c(C(=O)N[C@H]2CCCN(Cc3ccccc3)C2)cc1Cl (stereo in doubt) the Ki (D(1A) dopamine receptor) was 5600 nM, the Ki (D(4) dopamine receptor) was 64 nM and the Ki (D(2) dopamine receptor [1]) was 250 nM. The Ki (D(2) dopamine receptor [2]) was 210 nM and the Ki (D(3) dopamine receptor [3]) was 1500 nM.

COc1cc(N)c(Cl)cc1C(=O)N[C@H]1CCN(Cc2ccccc2)C[C@@H]1C (stereo in doubt; 3a) gave a Ki (D(1A) dopamine receptor) of 19000 nM, a Ki (D(4) dopamine receptor) of 35 nM and a Ki (D(2) dopamine receptor [1]) of 470 nM. For the same compound, the Ki (D(2) dopamine receptor [2]) was 340 nM and the Ki (D(3) dopamine receptor [3]) was 2200 nM.

Work on COc1c(C(=O)NC[C@@H]2CCN(Cc3ccccc3)C2)cc(Br)c2ccccc12 (stereo in doubt) yielded a Ki (D(1A) dopamine receptor) of 2900 nM, a Ki (D(4) dopamine receptor) of 78 nM and a Ki (D(2) dopamine receptor [1]) of 1300 nM. The Ki (D(2) dopamine receptor [2]) was 870 nM and the Ki (D(3) dopamine receptor [3]) was 1000 nM.
